According to patent publication US8609858B2, “Spiro derivatives of parthenin as novel anticancer agents” (Council of Scientific & Industrial Research, priority 2008, dated 2013):

Assays:
SW-620 = test: In vitro cytotoxicity screening (sulphodamine B dye), SW-620; type: cell-based; settings: Homo sapiens
Procedure: (§1) Cells at sub confluent stage were harvested from the flask by treatment with trypsin (0.5% in PBS containing 0.02% EDTA) for determination of cytotoxicity. […] The cell suspensions of required cell density were prepared in complete growth medium with gentamycin (50 μg/ml) for determination of cytotoxicity. The cells (100 μl/well) were inoculated in 96 well tissue culture plates. The cells were allowed to grow for 24 hrs temperature of 37° C. and in a humidified atmosphere of 5% CO2 in air. Stock solution of (20 mM) of test material was prepared in DMSO. The stock solution was serially diluted with complete growth medium containing 50 μg/ml of gentamycin to obtain […] working test solutions of 1., 2, 5, 10, 50 and 100 μM.
(§2) The media were supplemented with FCS (10%), penicillin (100 Units/ml), streptomycin (100 μg/ml) and glutamine (2 mM) and cells were grown in CO2 incubator (Hera cell, Heraeus, USA) at 37° C. with 90% humidity and 5% CO2.

DU-145 = test: In vitro cytotoxicity screening (sulphodamine B dye), DU-145; type: cell-based; settings: Homo sapiens
Procedure: as §1, §2

MOLT-4 cells = test: DNA cell cycle analysis by flow cytometry; type: cell-based, human; settings: for Sub G1 population: 24 hrs
Procedure: Effect of “Compound-17” on DNA content by cell cycle phase distribution was assessed using human leukemia MOLT-4. The MOLT-4 cells (1×10^6 cells/ml) in RPMI-1640 medium were incubated with “Compound-17” (1, 10, 50 and 100 μM) for 24 hrs. The cells were then washed twice with ice-cold PBS, harvested, fixed with ice-cold PBS in 70% ethanol, and stored at −20° C. for 30 min. After fixation, the cells were incubated with RNase A (0.1 mg/ml) at 37° C. for 30 min, stained with propidium iodide (50 μg/ml) for 30 min on ice in dark, and then measured for DNA content using BD-LSR Flow cytometer (Becton Dickinson, USA) equipped with electronic doublet discrimination capability using blue (488 nm) excitation from argon laser. Data were collected in list mode on 10,000 events for FL2-A vs. FL2-W and analyzed (FIG. 3).^3d

[1] = tested on: acute lymphoblastic leukemia Cells (MOLT-4); test: DNA fragmentation by DNA gel electrophoresis; type: cell-based, human; settings: 10, 50 & 100 μM, 24 hrs
Procedure: DNA fragmentation was determined by electrophoresis of extracted genomic DNA from acute lymphoblastic leukemia Cells (MOLT-4). Briefly, exponentially growing cells (3×10^6 cells/ml) in 6 well plates were treated with “Compound-17” (1, 10, 50 and 100 μM) for 24 hrs. Cells were harvested, washed with PBS, pellets were dissolved in lysis buffer (10 mM EDTA, 50 mM Tris Buffer, pH 8.0, 0.5% w/v SDS and proteinase K 0.5 mg/ml) and incubated at 50° C. for 1 hr. lysate was further incubated with RNase A (0.5 mg/ml) at 50° C. for 1 hr. Finally, the DNA obtained was heated rapidly to 70° C., supplemented with loading dye and immediately resolved on to 1.5% agarose gel at 50 V for 2-3 hrs (FIG. 2).

[2] = tested on: Ehrlich Ascites Tumor (EAT); test: Anti tumor activity on solid Ehrlich Ascites Tumor (EAT) bearing mice; type: in vivo; settings: for % Tumor growth inhibition / Tumor Weight (mg) Mean ± SE: nine days, day 13
Excerpt: Non-inbred swiss albino mice from an in-house colony were used in the present study. The breeding and experimental animals were housed in standard size polycarbonate cages providing internationally recommended space for each animal. Animals were fed balanced mice feed supplied by MIs Ashirwad Industries, Chandigarh (India) and autoclaved water was available ad libitum. Animals were cared as per the guide for the care and use of laboratory animals (1996), ILAR, Washington D.C. They were housed in controlled conditions of temperature (23±2° C.), humidity (50-60%) and 12:12 hrs of light: dark cycle. The study and the number of animals used were approved by the institutional animal ethics committee, IIIM, Jammu, India. The study was conducted as per the protocols of National Cancer Institute (NCl), USA (Geran et al., 1972).
Parthenin and its derivative Compound-17 were evaluated against solid Ehrlich Ascites Tumor (EAT) models at different doses. A standard procedure for experiment was as followed:
Animals of the same sex weighing 20±3 g were injected 1×10^7 cells collected from the peritoneal cavity of non-inbred swiss mice, bearing 8-10 days old tumor cells, into the right thigh, intramuscularly (on Day 1). On next day animals were randomized and divided into test groups (7 animals in each test group) and one tumor control group (10 animals). Test groups were treated with different doses of Parthenin (10 mg/kg, 25 mg/kg and 50 mg/kg) and its derivative Compound-17 (10 mg/kg, 25 mg/kg and 50 mg/kg, 100 mg/kg and 200 mg/kg) suspension in 1% gum acacia in, their respective group intraperitonealy for nine consecutive days. Another test group was administered 5-FU @ 22 mg/kg i.p and served as positive control. The tumor contra group was similarly administered normal saline (0.2 ml i.p). The percent tumor growth-inhibition was measured on day 13 with respect to their tumor weight (Geran et al., 1972): Shortest and longest diameters of the tumor mass were measured with the help of vernier caliper and tumor weight (mg) was calculated by using following formula Tumor weight (mg)=Length (mm)×(Width (mm)^2/2 The average tumor weight for each group was calculated and the percent tumor growth inhibition in treated groups was calculated as follows: % Tumor Growth Inhibition=100×(Average tumor weight of control group−Average tumor weight of test group)/Average tumor weight of control group Anti Tumor Activity of Parthenin and its Derivative Compound-17 on Ehrlich Ascites Carcinoma (EAC)

C[C@H]1CC[C@@H]2[C@@H](OC(=O)C23CC(c2c4ccccc4cc4ccccc24)=NO3)[C@]2(C)C(=O)C=C[C@@]12O (stereo partly shown) [Compound -17]
IC50 (SW-620; SW-620 colon cancer cell line): 4.3 µM
inhibition at 5 µM (SW-620; at 5 μM, SW-620, read-out: cell growth inhibition): 72%
IC50 (DU-145; DU-145 prostate cancer cell line): 4.6 µM
inhibition at 5 µM (DU-145; at 5 μM, DU-145, read-out: cell growth inhibition): 85%
Sub G1 population (MOLT-4 cells; 1 μM): 6.58%
Sub G1 population (MOLT-4 cells; 10 μM): 33.09%
Sub G1 population (MOLT-4 cells; 50 μM): 33.2%
blockage of G1 phase of cell cycle (MOLT-4 cells; 100 μM): complete blockage of G1 phase
Sub G1 population (MOLT-4 cells; 100 μM): 55%
DNA ladder (DNA fragmentation) [1]: DNA ladder was observed
% Tumor growth inhibition ([2]; 10 mg/kg i.p.): 9.44%
Tumor Weight (mg) Mean ± SE ([2]; 10 mg/kg i.p.): 1547.14 ± 36.63 mg
% Tumor growth inhibition ([2]; 25 mg/kg i.p.): 15.38%
Tumor Weight (mg) Mean ± SE ([2]; 25 mg/kg i.p.): 1445.71 ± 41.52 mg
% Tumor growth inhibition ([2]; 50 mg/kg i.p.): 22.03%
Tumor Weight (mg) Mean ± SE ([2]; 50 mg/kg i.p.): 1332.14 ± 32.59 mg
% Tumor growth inhibition ([2]; 100 mg/kg i.p.): 35.11%
Tumor Weight (mg) Mean ± SE ([2]; 100 mg/kg i.p.): 1108.57 ± 38.02 mg
mortality of test animals ([2]; 200 mg/kg i.p., EAT bearing mice): All animals died by 3rd day
